# Assay results taken from patent US20260109712A1, “RIFAMYCINS FOR NONTUBERCULOUS MYCOBACTERIA” (priority 2022, published 2026).
# Legend:
# Format in all cases: cell-based, Mycobacterium abscessus
# [1] = tested on: M. abscessus Bamboo; assay: MIC assay, clinical isolate Bamboo
# [2] = tested on: RFB-R1 M. abscessus; assay: microbe, parasite or virus in culture
# [3] = tested on: Δarr M. abscessus; assay: MIC assay, isogenic arr-deleted strain; details: arr-deleted strain; 90% growth inhibition
# How it was run: (§1)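 Two-fold, ten-point dilutions in 7H9 with 2% DMSO; mid-log culture diluted to OD600=0.1 (1×10^7 CFU/mL). Incubated 3 days at 37 °C, shaking 110 RPM; growth = Day 3 minus Day 0 OD600, expressed as percentage of drug-free growth and plotted against concentration. Two biological replicates.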
# [4] = tested on: M. abscessus ATCC 19977; assay: MIC assay in 96-well plate format, wild-type strain
# How it was run: as §1
# [5] = tested on: M. abscessus subsp. abscessus K21; assay: MIC assay, clinical isolate K21; details: 90% inhibition of bacterial growth
# [6] = tested on: M. abscessus Bamboo; assay: Caseum surrogate MBC90 (cMBC90) kill assay
# From the text: (§2) The surrogate matrix was generated as described previously from cultured THP-1 cells (ATCC TIB-202) (mBio, 2023, 14, e0059823). M. abscessus exponential cultures grown in Middlebrook 7H9 broth (Sigma Aldrich) (OD600 0.6-0.9) were spun down and resuspended in water to an OD600 of 7, 0.7, and 0.07. As described for the M. tuberculosis caseum surrogate assay (mnBio, 2023, 14, e0059823), the bacterial suspensions (at three different dilutions resulting in ˜10^9, 10^8, and 10^7 starting CFU/mL, represented by circle, square, and triangle indicators respectively) were added to the caseum surrogate in the ratio 2:1 (vol/wt), briefly homogenized with 1.4-mm zirconia beads, divided evenly into nine 1.5-mL microcentrifuge tubes, and incubated as standing cultures at 37° C. At the indicated time points, tubes were removed and used for CFU enumeration by plating on Middlebrook 7H11 agar (Sigma Aldrich). Separate tubes were used at each time point. To determine the kill curves, cultures with a starting CFU/mL of 10^8 were used (resulting in the middle curve with square indicators). Arrows indicate the time points when drugs were added and the end of the treatment. The experiment was repeated three times independently, yielding similar results. A representative example is shown. Dots and error bars represent means and standard deviations of three technical replicates, respectively.
# FIGS. 29A-29M show the Dose-response kill curves against M. abscessus Bamboo in caseum surrogate. M. abscessus cultures were set up as described in the legend of FIG. 28. Bacterial cell suspensions were added to yield a starting CFU of 10^8/mL (FIG. 28, middle growth curve with square indicators). […] The shaded areas indicate drug concentration windows achieved in caseum in vivo. (Antimicrob. Agents Chemother., 2021, 65, e0050621; Antimicrob. Agents Chemother., 2022, 66, e0221221; PLoS Med., 2019, 16, e1002773; ACS Infect. Dis., 2016, 2, 251-267). The experiment was repeated twice independently, yielding similar results. A representative example is shown. Dots and error bars represent means and standard deviations of three technical replicates, respectively. Horizontal dotted lines indicate the cutoff for 1 log reduction in CFU compared to 10-day drug-free control culture. The cMBC90 values shown in Table 16 are the drug concentrations that reduce CFU by 90% relative to the CFU of drug-free controls at day 10. Since the cultures were in the stationary phase on day 5 when drug treatment started, the CFUs of the drug-free cultures at day 10 were similar to the CFUs of the drug-free cultures at day 5 (FIG. 28).
# as §2, with “(doi: 10.1128/mbio.00598-23).” for “(mBio, 2023, 14, e0059823).”, “(doi: 10.1128/mbio.00598-23),” for “(mnBio, 2023, 14, e0059823),”, “CFU/mL)” for “CFU/mL, represented by circle, square, and triangle indicators respectively)”, “curves for the drugs,” for “curves,”, “used.” for “used (resulting in the middle curve with square indicators). Arrows indicate the time points when drugs were added and the end of the treatment.”, “results.” for “results. A representative example is shown. Dots and error bars represent means and standard deviations of three technical replicates, respectively.”
# The experiment was repeated twice independently, yielding similar results. A representative example is shown. The cMBC90 values shown in Table 16 are the drug concentrations that reduce CFU by 90% relative to the CFU of drug-free controls at day 10. […]
# [7] = tested on: M. abscessus Bamboo; assay: Broth MBC90 (bMBC90); details: broth, 5 days
# From the text: Broth MIC, broth MBC90 (bMBC90), and caseum surrogate MBC90 ([…]) of clinically used antibiotics and of novel ADP-ribosylation-resistant rifabutin analogs against M. abscessus Bamboo have been evaluated.
# [8] = 90% inhibition of bacterial growth
structure (smiles),measurement,setting,value
"CO[C@H]1/C=C/O[C@@]2(C)Oc3c(C)c(O)c4c(c3C2=O)C2=NC3(CCN(CC(C)C)CC3)NC2=C(NC(=O)/C(C)=C/C=C/[C@H](C)[C@H](O)[C@@H](C)[C@@H](O)[C@@H](C)[C@H](OC(=O)c2ccccc2)[C@@H]1C)C4=O [5a, 25-O-benzoyl rifabutin]",Mab Bamboo MIC,[1]; [8],0.065 µM
same,MIC,"[1]; broth, M. abscessus Bamboo, Table 16, read-out: MIC",0.07 µM
same,activity against rifamycin-resistant mutant RFB-R1,[2]; RNAP point mutation,lost detectable activity
same,RFB-R1 M. abscessus MIC,"[2]; rpoB H447Y mutant, 90% inhibition",>100 µM
same,Δarr Mab MIC,[3],0.06 µM
same,Mab 19977 MIC,[4]; [8],0.053 µM
same,MIC,"[4]; M. abscessus ATCC 19977, 90% growth inhibition, read-out: WT Mab MIC",0.053 µM
same,MIC ratio,[4]; WT MIC/Δarr strain MIC,0.9
same,Mab K21 MIC,[5],0.098 µM
same,cMBC90/bMBC90,[6]; 5-day assays,26.7
same,MBC,"[6]; caseum surrogate, 5 days, 90% CFU reduction vs drug-free control, read-out: cMBC90",8 µM
same,MBC,[7],0.30 µM
